Laboratory results taken from PubChem BioAssay AID248 (DTP/NCI, 2004).
Values joined by “and” are separate entries in the source; they are usually repeats but may differ in a detail not shown here. Equal values may be shown once. Inconclusive results and toxic doses are left out. No stated cut-off is given here; in the data, active means T/C of 150% or more; inactive means T/C below 125%.

Test system: L1210 leukemia ip in BDF1 mice, survival T/C
Assay: NCI In Vivo Anticancer Drug Screen. Data for tumor model L1210 Leukemia (intraperitoneal) in B6D2F1 (BDF1) mice
Details: endpoint: mean survival time, higher = longer survival
Method in brief: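 Ratio derived from survival: compound-dosed mice over vehicle-dosed mice, all bearing a transplantable tumor.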

[1] = dose: 25.0 mg/kg/injection, schedule: Q04DX003 (ip), vehicle: Klucel (hydroxypropylcellulose) (HPC)
[2] = dose: 50.0 mg/kg/injection, schedule: Q04DX003 (ip), vehicle: Klucel (hydroxypropylcellulose) (HPC)
[3] = dose: 100.0 mg/kg/injection, schedule: Q04DX003 (ip), vehicle: Klucel (hydroxypropylcellulose) (HPC)
[4] = dose: 200.0 mg/kg/injection, schedule: Q04DX003 (ip), vehicle: Klucel (hydroxypropylcellulose) (HPC)
[5] = dose: 400.0 mg/kg/injection, schedule: Q04DX003 (ip), vehicle: Klucel (hydroxypropylcellulose) (HPC)
[6] = dose: 50.0 mg/kg/injection, schedule: Q04DX003 (ip), vehicle: saline with Tween-80
[7] = dose: 100.0 mg/kg/injection, schedule: Q04DX003 (ip), vehicle: saline with Tween-80
[8] = dose: 50.0 mg/kg/injection, schedule: Q01DX009 (ip), vehicle: saline with Tween-80
[9] = dose: 100.0 mg/kg/injection, schedule: Q01DX009 (ip), vehicle: saline with Tween-80
[10] = dose: 200.0 mg/kg/injection, schedule: Q01DX009 (ip), vehicle: saline with Tween-80
[11] = dose: 200.0 mg/kg/injection, schedule: Q01DX001 (ip), vehicle: carboxymethylcellulose (CMC)
[12] = dose: 400.0 mg/kg/injection, schedule: Q01DX001 (ip), vehicle: carboxymethylcellulose (CMC)
[13] = dose: 200.0 mg/kg/injection, schedule: Q04DX003 (ip), vehicle: saline with Tween-80
[14] = dose: 100.0 mg/kg/injection, schedule: Q01DX001 (ip), vehicle: Klucel (hydroxypropylcellulose) (HPC)
[15] = dose: 200.0 mg/kg/injection, schedule: Q01DX001 (ip), vehicle: Klucel (hydroxypropylcellulose) (HPC)

Measured: T/C

C=CCc1c[nH]c(=O)[nH]c1=O.[Hg]
inactive: dose: 12.5 mg/kg/injection, schedule: Q01DX009 (ip), vehicle: Klucel (hydroxypropylcellulose) (HPC) 93 % of control | dose: 25.0 mg/kg/injection, schedule: Q01DX009 (ip), vehicle: Klucel (hydroxypropylcellulose) (HPC) 98 % of control | [1] 92 % of control | [2] 89 % of control | [3] 97 % of control

Cc1ccc(S(=O)(=O)N/N=C/c2ccc([N+](=O)[O-])s2)cc1
inactive: [3] 96 % of control | [4] 94 % of control | [5] 96 % of control

[N-]=[N+]=NCc1nnc2ncnc(N)c2n1
inactive: dose: 25.0 mg/kg/injection, schedule: Q01DX009 (ip), vehicle: saline with Tween-80 88 % of control | dose: 25.0 mg/kg/injection, schedule: Q04DX003 (ip), vehicle: saline with Tween-80 94 % of control | [6] 105 % of control | dose: 100.0 mg/kg/injection, schedule: Q01DX001 (ip), vehicle: saline with Tween-80 95 % of control | [7] 102 % of control

COc1ccc(O)c(N=Nc2nccs2)c1
inactive: [8] 109 % of control | [9] 106 % of control | [10] 102 % of control

CC(C)(C)NC(=O)NCCc1ccccc1
inactive: dose: 100.0 mg/kg/injection, schedule: Q01DX009 (ip), vehicle: Klucel (hydroxypropylcellulose) (HPC) 106 % of control | [3] 96 % of control | [4] 97 % of control and 89 % of control | dose: 400.0 mg/kg/injection, schedule: Q01DX009 (ip), vehicle: Klucel (hydroxypropylcellulose) (HPC) 103 % of control | [5] 91 % of control and 92 % of control

O=C(CC1(c2ccccc2)C(=O)c2ccccc2C1=O)c1ccccc1
inactive: dose: 100.0 mg/kg/injection, schedule: Q01DX001 (ip), vehicle: carboxymethylcellulose (CMC) 94 % of control | [11] 91 % of control | [12] 94 % of control

Oc1ccccc1C=NCCN=Cc1ccccc1O
inactive: [9] 90 % of control | [10] 92 % of control | dose: 400.0 mg/kg/injection, schedule: Q01DX009 (ip), vehicle: saline with Tween-80 92 % of control

CCCP(=S)(CCC)N(C)C
inactive: [7] 101 % of control | [13] 104 % of control

NCCCCCCNC(=O)CCCCC(=O)NCCCCCCN
inactive: dose: 8.0 mg/kg/injection, schedule: Q01DX Z (ip), vehicle: water 88 % of control | dose: 16.0 mg/kg/injection, schedule: Q01DX Z (ip), vehicle: water 86 % of control | dose: 32.0 mg/kg/injection, schedule: Q01DX Z (ip), vehicle: water 89 % of control | dose: 64.0 mg/kg/injection, schedule: Q01DX Z (ip), vehicle: saline 90 % of control | dose: 64.0 mg/kg/injection, schedule: Q01DX Z (ip), vehicle: water 91 % of control

O=C1Nc2ccccc2C(=O)Nc2ccccc21
inactive: dose: 100.0 mg/kg/injection, schedule: Q04DX003 (ip), vehicle: acetone 98 % of control | dose: 200.0 mg/kg/injection, schedule: Q04DX003 (ip), vehicle: acetone 93 % of control | dose: 400.0 mg/kg/injection, schedule: Q04DX003 (ip), vehicle: acetone 101 % of control

C[N+](C)(C)C1CCCCCCC(=O)NC1 (stereo unspecified)
inactive: dose: 75.0 mg/kg/injection, schedule: Q01DX009 (ip), vehicle: saline 101 % of control | dose: 150.0 mg/kg/injection, schedule: Q01DX009 (ip), vehicle: saline 92 % of control | dose: 300.0 mg/kg/injection, schedule: Q01DX009 (ip), vehicle: saline 109 % of control

Cc1ncc(CO)c(C2NOCc3ncsc32)c1O (stereo unspecified)
inactive: dose: 6.25 mg/kg/injection, schedule: Q01DX009 (ip), vehicle: saline 89 % of control | dose: 6.25 mg/kg/injection, schedule: Q04DX003 (ip), vehicle: saline 102 % of control | dose: 12.5 mg/kg/injection, schedule: Q01DX001 (ip), vehicle: saline 101 % of control | dose: 12.5 mg/kg/injection, schedule: Q01DX009 (ip), vehicle: saline 97 % of control | dose: 12.5 mg/kg/injection, schedule: Q04DX003 (ip), vehicle: saline 106 % of control | dose: 25.0 mg/kg/injection, schedule: Q01DX001 (ip), vehicle: saline 102 % of control | dose: 25.0 mg/kg/injection, schedule: Q04DX003 (ip), vehicle: saline 93 % of control

C/C(=N/Nc1c(F)c(F)c(-c2c(F)c(F)c(N/N=C(\C)c3ccccc3)c(F)c2F)c(F)c1F)c1ccccc1
inactive: dose: 25.6 mg/kg/injection, schedule: Q04DX002 (ip), vehicle: saline with Tween-80 95 % of control | dose: 64.0 mg/kg/injection, schedule: Q04DX002 (ip), vehicle: saline with Tween-80 92 % of control | dose: 160.0 mg/kg/injection, schedule: Q04DX002 (ip), vehicle: saline with Tween-80 89 % of control | dose: 400.0 mg/kg/injection, schedule: Q04DX002 (ip), vehicle: saline with Tween-80 92 % of control

O=C(Nc1ccn(C2OC(CO)C(O)C2O)c(=O)n1)c1ccccc1 (stereo unspecified)
inactive: dose: 100.0 mg/kg/injection, schedule: Q01DX001 (ip), vehicle: saline 97 % of control | dose: 200.0 mg/kg/injection, schedule: Q01DX001 (ip), vehicle: saline 97 % of control | dose: 400.0 mg/kg/injection, schedule: Q01DX001 (ip), vehicle: saline 86 % of control

O=C(c1cccs1)C1Cc2ccccc2C1=O (stereo unspecified)
inactive: dose: 100.0 mg/kg/injection, schedule: Q01DX009 (ip), vehicle: saline sonified 98 % of control | dose: 100.0 mg/kg/injection, schedule: Q04DX003 (ip), vehicle: saline sonified 94 % of control | dose: 200.0 mg/kg/injection, schedule: Q01DX009 (ip), vehicle: saline sonified 95 % of control | dose: 200.0 mg/kg/injection, schedule: Q04DX003 (ip), vehicle: saline sonified 92 % of control | dose: 400.0 mg/kg/injection, schedule: Q01DX009 (ip), vehicle: saline sonified 101 % of control | dose: 400.0 mg/kg/injection, schedule: Q04DX003 (ip), vehicle: saline sonified 94 % of control

COc1nccc2ccccc12
inactive: [7] 94 % of control | [13] 92 % of control

COc1ccc(S(=O)(=O)N/N=C/C(=O)O)cc1
inactive: dose: 6.25 mg/kg/injection, schedule: Q01DX009 (ip), vehicle: saline with Tween-80 109 % of control | dose: 12.5 mg/kg/injection, schedule: Q01DX009 (ip), vehicle: saline with Tween-80 117 % of control

C/C(=N\N(Cc1ccc(CN(/N=C(\C)c2ccccc2)c2ccccc2)cc1)c1ccccc1)c1ccccc1
inactive: dose: 100.0 mg/kg/injection, schedule: Q01DX001 (ip), vehicle: other 86 % of control | dose: 200.0 mg/kg/injection, schedule: Q01DX001 (ip), vehicle: other 89 % of control | dose: 400.0 mg/kg/injection, schedule: Q01DX001 (ip), vehicle: other 89 % of control

O=[N+]([O-])c1cccc(OCCOc2ccc(S(=O)(=O)F)cc2)c1
inactive: [7] 106 % of control | [13] 88 % of control | dose: 400.0 mg/kg/injection, schedule: Q04DX003 (ip), vehicle: saline with Tween-80 93 % of control

COC(=O)c1ccc(Cn2ccc(=O)[nH]c2=O)cc1
inactive: [6] 92 % of control | [7] 95 % of control | [13] 89 % of control

O=C(/C=C\c1ccc(NCc2ccc(C(=O)O)cc2)cc1)CCl
inactive: [1] 100 % of control | dose: 50.0 mg/kg/injection, schedule: Q01DX001 (ip), vehicle: carboxymethylcellulose (CMC) 91 % of control | [2] 90 % of control | [3] 95 % of control | [11] 93 % of control | [12] 98 % of control

CC(=O)C1C(=O)OC(C)=C(C(=O)O)C1=O (stereo unspecified)
inactive: [8] 102 % of control | [9] 100 % of control | [7] 92 % of control | [13] 103 % of control

COc1ccc(-n2c(=O)c(N=Nc3ccc(Cl)cc3)c(O)n(-c3ccccc3OC)c2=S)cc1
inactive: dose: 50.0 mg/kg/injection, schedule: Q01DX001 (ip), vehicle: Klucel (hydroxypropylcellulose) (HPC) 110 % of control | [14] 102 % of control | [15] 100 % of control

C/C=C/C=C/COC(=O)CCCCCCCC
inactive: dose: 100.0 mg/kg/injection, schedule: Q04DX002 (ip), vehicle: saline 103 % of control | dose: 200.0 mg/kg/injection, schedule: Q04DX002 (ip), vehicle: saline 103 % of control | dose: 400.0 mg/kg/injection, schedule: Q04DX002 (ip), vehicle: saline 108 % of control

CCOC(=O)Cc1ccc(N)cc1
inactive: [14] 104 % of control | [15] 101 % of control
